From BindingDB's records for doi:10.1021/jm00388a021 (1987)

Columns and labels:
[1] = molecular target: Thymidine kinase (Herpes simplex virus 1); test: Compound was evaluated for Kinetic constant for viral thymidine kinase of Herpes simplex virus (HSV) -1
[2] = molecular target: Thymidine kinase (Herpes simplex virus 2); test: Compound was evaluated for Kinetic constant for viral thymidine kinase of Herpes simplex virus (HSV) -2

Ki [1]: 140 nM
Ki [2]: 950 nM
SMILES: O=c1[nH]c(=O)n([C@@H]2O[C@H](CO)[C@@H](O)[C@@H]2F)cc1I [FIALURIDINE]
